{"source": "patent US20200031920A1", "about": "“Combination Therapy for Treating Cancer” (The George Washington University, priority 2017, published 2020)", "key": {"JAK2": {"biological_target": "JAK2 (Homo sapiens, UniProt O60674)", "sequence (O60674 whole entry)": "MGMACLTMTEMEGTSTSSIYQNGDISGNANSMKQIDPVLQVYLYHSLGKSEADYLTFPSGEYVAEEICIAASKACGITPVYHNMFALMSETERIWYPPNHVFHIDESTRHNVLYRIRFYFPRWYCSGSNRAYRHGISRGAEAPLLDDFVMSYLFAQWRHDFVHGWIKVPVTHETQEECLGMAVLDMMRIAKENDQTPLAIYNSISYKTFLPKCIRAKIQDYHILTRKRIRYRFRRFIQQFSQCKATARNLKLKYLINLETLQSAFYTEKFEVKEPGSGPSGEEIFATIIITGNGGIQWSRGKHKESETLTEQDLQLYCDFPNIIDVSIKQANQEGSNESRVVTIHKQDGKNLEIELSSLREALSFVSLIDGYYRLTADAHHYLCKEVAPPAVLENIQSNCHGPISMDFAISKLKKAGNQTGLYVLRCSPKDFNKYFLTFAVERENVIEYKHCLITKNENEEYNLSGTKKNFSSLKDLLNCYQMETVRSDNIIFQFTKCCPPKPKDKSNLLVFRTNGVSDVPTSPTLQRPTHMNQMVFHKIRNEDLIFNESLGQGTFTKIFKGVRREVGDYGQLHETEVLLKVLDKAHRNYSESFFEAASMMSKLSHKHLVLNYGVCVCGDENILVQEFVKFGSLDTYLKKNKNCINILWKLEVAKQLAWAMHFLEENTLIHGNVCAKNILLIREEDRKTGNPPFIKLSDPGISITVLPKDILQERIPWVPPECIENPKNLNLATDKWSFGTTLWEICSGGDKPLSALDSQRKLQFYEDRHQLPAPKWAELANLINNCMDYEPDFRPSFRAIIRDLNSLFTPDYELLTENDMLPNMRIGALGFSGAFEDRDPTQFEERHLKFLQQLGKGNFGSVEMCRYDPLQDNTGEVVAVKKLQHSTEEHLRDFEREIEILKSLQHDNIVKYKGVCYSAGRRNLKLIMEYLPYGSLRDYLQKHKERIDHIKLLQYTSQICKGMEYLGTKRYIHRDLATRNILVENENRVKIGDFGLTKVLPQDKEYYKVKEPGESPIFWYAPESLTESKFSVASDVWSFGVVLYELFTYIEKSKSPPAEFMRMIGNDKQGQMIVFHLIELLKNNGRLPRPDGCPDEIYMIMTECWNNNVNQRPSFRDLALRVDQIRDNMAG", "assay": "in vitro kinase profiling, more than 450 human kinases", "assay_type": "binding", "conditions": "data not shown", "experimental": "(§1) To determine whether LY2784544 is able to sensitize SKOV3 CR cells to cisplatin in vivo, SKOV3 CR cells were implanted subcutaneously into nude mice. When the tumor volume reached 100 mm^3, mice were randomized to receive intraperitoneal injections of vehicle, cisplatin (8 mg/kg on days 1 and 8), LY2784544 (15 mg/kg/d from day 1 to day 14), or the combination of cisplatin and LY2784544. […] To evaluate whether this in vivo tumor suppression was through inhibition of the JAK2 pathway and increased apoptosis, the tumor samples four days after full dosage treatment were collected. […] Quantification of phosphorylated JAK2 and TUNEL staining in tumor tissues treated was performed (FIG. 28). […] To confirm the selectivity of LY2784544, an in vitro kinase profiling was conducted to examine the interaction of LY2784544 with more than 450 human kinases."}, "SKOV3 CR cells [1]": {"tested_on": "SKOV3 CR cells", "assay": "clonogenic (colony formation) assay", "assay_type": "cell-based", "conditions": "0.1 μM LY2784544 and 0.5 μM cisplatin, 14 days", "experimental": "FIG. 16 is an illustration showing representative colony formation (A) and bar graphs ((B)-(C)). SKOV3 parental and resistant cells were treated with 0.1 μM LY2784544 and 0.5 μM cisplatin for 14 days and quantification data of colony formation assays ((B) and (C)). Colonies in (A) were stained with crystal violet. Data are represented as mean±SD from three independent experiments performed in triplicate. *p<0.05, **p<0.01, ***p<0.001.\nClonogenic assays were conducted to evaluate the cell survival of SKOV3 and SKOV3 CR cells in response to cisplatin, LY2784544, or both cisplatin and LY2784544. […] Currently, carboplatin-based chemotherapy becomes a universal choice. The synergistic effect of LY2784544 with carboplatin on SKOV3 CR cells was also examined."}, "SKOV3 CR cells [2]": {"tested_on": "SKOV3 CR cells", "assay": "combinational high throughput screen with cisplatin", "assay_type": "cell-based", "conditions": "in combination with DMSO, 1 μM cisplatin or 20 μM cisplatin", "from_the_text": "A combinational HTS using multiple compound libraries including NPC (NIH Pharmaceutical Collection), MIPE (Mechanism interrogation plate), and LOPAC (The Library of Pharmacologically Active Compounds) was used to identify compounds that can overcome cisplatin resistance of SKOV3 CR cells (FIG. 5). The library of pharmacologically active compounds (LOPAC®) of 1280 compounds (1) was purchased from Sigma. The NCGC Pharmaceutical Collection (NPC) of 2816 compounds and mechanism interrogation plate (MIPE) library of 1920 compounds were previously described. Bromberg, J Clin Invest 109: 1139-1142 (2002) and Buchert et al., Oncogene 35: 939-951 (2016). Compounds from all libraries were obtained as powder and dissolved in dimethyl sulfoxide (DMSO) […]. Combinational HTS was performed as previously described. Szasz et al., Oncotarget 7: 49322-49333 (2016). A total of 6,016 compounds were screened. […] In the second screen, these 112 compounds were selected for a dose-response confirmation screen in combination with DMSO, 1 μM cisplatin or 20 μM cisplatin (FIG. 5)."}, "[3]": {"tested_on": "SKOV3 CR xenograft tumors", "assay": "SKOV3 CR xenograft tumors in nude mice", "assay_type": "in vivo", "experimental": "FIG. 26 are line graphs showing the growth curves of tumors (A) and Kaplan-Meier survival curves (C) from mice treated with vehicle, LY2784544 (15 mg/kg/day intraperitoneally), cisplatin (8 mg/kg/week intraperitoneally), or LY2784544 plus cisplatin (combo) for 2 weeks. A photograph of the representative tumor from mice in each treatment arm is also shown (B). Data in (A) are represented as mean±SEM, n=6 mice/group. *p<0.05, **p<0.01, ***p<0.001. Data in (B) are represented as n=6 mice/group. *p<0.05, **p<0.01. Ruler scale in (B) is in cm.\nFIG. 27 is an illustration showing the IHC and TUNEL staining of tumors from mice in each treatment arm sacrificed after 4 days of treatment. n=3 mice/group. Bar=50 μm.\nas §1"}, "[4]": {"conditions": "tumor samples four days after full dosage treatment"}}}
{"smiles": "Cc1cc(Nc2cc(CN3CCOCC3)c3nc(C)c(Cc4ccc(Cl)cc4F)n3n2)n[nH]1", "note": "[LY2784544]", "values": [{"measurement": "binding selectivity among kinases", "setting": "JAK2", "result": "stronger binding to JAK2 than JAK1 and TYK2"}, {"measurement": "cell survival, combined treatment compared to cisplatin treatment", "setting": "SKOV3 CR cells [1]", "result": "significantly reduced the survival of SKOV3 CR"}, {"measurement": "sensitization to cisplatin in second (dose-response confirmation) screen", "setting": "SKOV3 CR cells [2]", "result": "significantly sensitize SKOV3 CR cells to cisplatin"}, {"measurement": "tumor growth, combination versus vehicle or single agents", "setting": "[3]; LY2784544 15 mg/kg/d i.p. day 1-14 plus cisplatin 8 mg/kg i.p. days 1 and 8", "result": "significantly reduced the tumor growth"}, {"measurement": "survival of mice, combination", "setting": "[3]; LY2784544 15 mg/kg/d i.p. plus cisplatin 8 mg/kg i.p. days 1 and 8", "result": "improved survival of the mice"}, {"measurement": "histopathology of liver and kidney", "setting": "[3]; any treated groups (cisplatin, LY2784544, combination), 4 days after final treatment", "result": "No histopathological changes and lesions in liver and kidney"}, {"measurement": "mouse body weight, combined treatment with cisplatin", "setting": "[3]; during treatment", "result": "no significant reduction in mouse body weight"}, {"measurement": "apoptosis in tumors (TUNEL), combined with cisplatin", "setting": "[3]; [4]", "result": "significantly induced the apoptosis"}, {"measurement": "phosphorylation of JAK2 in tumors (IHC)", "setting": "[3]; [4]", "result": "efficiently reduce the phosphorylation of JAK2 in vivo"}]}
